Measured values: article PMC9229894, “In Silico, In Vitro, and Pharmacokinetic Studies of UBMC-4, a Potential Novel Compound for Treating against Trypanosoma cruzi” (Pathogens, 2022)
Values joined by “and” are separate entries in the source; they are usually repeats but may differ in a detail not shown here. Equal values may be shown once. “Also recorded” adds a separate entry of the source.

Tests used:
T. cruzi epimastigotes [1] = assay: Flow cytometry of apoptosis-like markers in epimastigotes (Hoechst, DiOC6, PI); format: cell-based, Trypanosoma cruzi; conditions: 10 µM, 24 h
Description: Apoptosis-like markers were analyzed by triple staining using 3,3′-dihexyloxacarbocyanine (DiOC6), propidium iodide (PI), and Hoechst from Thermo Fisher Scientific to determine the change of mitochondrial membrane potential (ΔΨm), cell membrane damage, and impairment of cell cycle, respectively. All readings were performed on a BD FACSCanto II 4/2/2 Sys IVD flow cytometer, and data obtained were analyzed using the FlowJo7.6.2 software. Differences between treatments were determined by a two-way ANOVA for multiple comparisons with 95% significance using GraphPad Prism 8. In all cases, 20 µL of parasites (5 × 10^6/mL) were stained per treatment with 300 µL of Hanks’ balanced saline solution (HBSS) and 10 µL of the staining mix containing […], 0.5 µL of 70 nM DiOC6, and 0.5 µL of 10 mg/mL Hoechst. Subsequently, parasites were incubated at room temperature for 15 min until reading.
T. cruzi epimastigotes in exponential growth phase were used to submit the parasites to a treatment under nutritional stress and further challenging the culture with the inhibitor UBMC-4 and the control drug bz. Nutritional stress was induced by starving the parasites in PBS. Parasites were grown either in complete RPMI medium or PBS (with and without 10 µM UBMC-4) for 24 h at 28 °C. Three independent biological replicates were analyzed per treatment. The experiments were performed in 24-well plates at an initial concentration of 1 × 10^7 total parasites in 2 mL/well. Parasites were centrifuged at 1800 RCF for 5 min, washed once with PBS buffer, and then resuspended in a final volume of 2 mL for further labeling and flow cytometry.

T. cruzi epimastigotes [2] = assay: Intracellular ROS production in epimastigotes (H2DCFDA); format: cell-based, Trypanosoma cruzi; conditions: 10 µM, 24 h
Description: A total of 1.4 × 10^6 epimastigotes grown under normal and stress nutritional conditions were treated with 10 µM UBMC-4 for 24 h and the intracellular ROS concentration was determined by fluorometric testing with the diacetate 2′,7′-dichlorodihydrofluorescein (H2DCFDA) probe at 0.2 µg/mL. As controls, cell cultures both treated with no probe as well as only labeled with H2DCFDA were performed to determine baseline fluorescence. A ROS-production positive control was set up by challenging parasites with […] rotenone (a ROS inducer) for 1 h prior to labeling and reading. After the treatment, parasites were washed and resuspended in 100 µL of the H2DCFDA-containing solution, transferred to 96-well plates protected from the light, and then incubated for 1 h at 37 °C. The test readout was collected using an ELISA plate reader at an excitation wavelength of 495 nm and emission wavelength of 527 nm, respectively. Each treatment was performed in triplicate, and data were reported in arbitrary units of fluorescence.

[3] = In vivo pharmacokinetic analysis of UBMC-4 in mice (HPLC plasma, two-compartment model); design: species or system Balb/c Mus musculus
Description: A total of 30 mice (15 males and 15 females) was randomly selected and divided into two groups: one group received a 200 µL oral single dose of UBMC-4 at a concentration of 60 mM (equivalent to a 200 mg/kg dose), and a control group receiving 200 µL of vehicle (Kolliphor and water without UBMC-4) via oral route. Considering that the average weight of the mice was 25 g, the total amount of UBMC-4 administered was 5 mg. The compound was only administered orally, it was not used intravenously since one of the primary objectives was to evaluate its gastrointestinal absorption. […] In this way, we wanted to find the highest potential plasma concentrations before inducing toxicity. Blood samples were collected in EDTA tubes via intracardiac puncture performed under general anesthesia in both groups at sampling time points as follows: 0 h, 1 h, 2 h, 3 h, 5 h, 6 h, 8 h, and 24 h. Samples were then centrifuged at 1800 rpm at 4 °C for 10 min to collect plasma. For each sampling time point, 100 µL of mouse plasma were collected and 200 µL of acetone were added. This mixture was vortexed for 30 s and centrifuged at 10,000 rpm at 4 °C for 20 min. Supernatants were poured into vials for HPLC analysis following the method described below.
The amount of UBMC-4 in plasma samples was quantified by a HPLC method using a Hitachi Chromaster HPLC System with a Knauer C18 Column as follows: λ: 300 nm; temperature: 40 °C; run time: 13 min at a flow rate of 1.0 mL/min. A gradient of acetonitrile:water:methanol in a 30:40:30 ratio was used as mobile phase from baseline to minute 6, a 20:0:80 ratio from minute 7 to minute 10, and again a 30:40:30 ratio from minute 11. Linearity of the method was calculated for the 0.5 µg/mL to 20 µg/mL concentration range, with a r^2 (correlation coefficient) of 0.969 for the relationship between the area under the curve and UBMC-4 absorption at 300 nm.
The ADAPT 5 software was used to determine the most suitable model for the UBMC-4 plasma concentration profile. The maximum likelihood estimation method was used for modeling. After conducting trials where various models were used, the best one was chosen based on the -Log-Likelihood (-LL) and Akaike information criterion (AIC) values. Consequently, by comparing models, the one producing lower values amongst these two parameters would be the one that best fit the plasma concentration data and the most useful for pharmacokinetic studies. Moreover, based on the R-square value (r^2), we assessed the correlation between the values predicted by the model and those observed in UBMC-4 plasma concentration. The selected model was therefore used to elaborate simulations using different administration regimens and thus predicting what would happen with UBMC-4 concentration levels upon administration of repeated dosage. This simulation was also performed using ADAPT 5 [36, 66, 67]

T. cruzi trypomastigotes = assay: Morphological changes of trypomastigotes incubated with UBMC-4 (data not shown); format: cell-based, Trypanosoma cruzi; conditions: 10 µM
[4] = two-compartment model, 200 mg/kg oral

Structure (SMILES): Oc1ccc(-c2nc(-c3ccc4sc5ccccc5c4c3)c(-c3ccccc3)[nH]2)cc1 [UBMC-4, 4-(4-dibenzo-[b,d]-thien-2-yl-5-phenyl-1H-imidazol-2-yl)phenol]
- changes in apoptosis-like markers (T. cruzi epimastigotes [1]; normal culture conditions): no changes in apoptosis-like markers
- DNA fragmentation (hypodiploid, Sub G0/G1), % of population (T. cruzi epimastigotes [1]; nutritional stress): up to 39.4%
- cell membrane damage (PI), % of population (T. cruzi epimastigotes [1]; nutritional stress): 38.4%
- mitochondrial depolarization (DiOC6), % of population (T. cruzi epimastigotes [1]; nutritional stress): 99.9%
- intracellular ROS concentration, treated vs untreated (T. cruzi epimastigotes [2]; normal nutritional conditions): No significant differences
- intracellular ROS concentration compared to untreated parasites (T. cruzi epimastigotes [2]; nutritional stress): twofold ROS concentration
- time of highest plasma concentration ([3]; 200 mg/kg oral single dose): 3 h
- oral absorption ([3]; 200 mg/kg oral, Kolliphor RH40 formulation, 200 mg/kg): well absorbed; also recorded: absorbed orally
- concentration at 0 h ([3]; both sexes, Balb/c, mouse, plasma, 200 mg/kg oral single dose, 0 h): 0 ng/mL
- concentration at 1 h ([3]; both sexes, Balb/c, mouse, plasma, 200 mg/kg oral single dose, 1 h): 2800 ng/mL and 6.69 µM
- concentration at 2 h ([3]; both sexes, Balb/c, mouse, plasma, 200 mg/kg oral single dose, 2 h): 3200 ng/mL
- concentration at 3 h ([3]; both sexes, Balb/c, mouse, plasma, 200 mg/kg oral single dose, 3 h): 4200 ng/mL
- concentration at 5 h ([3]; both sexes, Balb/c, mouse, plasma, 200 mg/kg oral single dose, 5 h): 3800 ng/mL
- concentration at 6 h ([3]; both sexes, Balb/c, mouse, plasma, 200 mg/kg oral single dose, 6 h): 3700 ng/mL
- concentration at 8 h ([3]; both sexes, Balb/c, mouse, plasma, 200 mg/kg oral single dose, 8 h): 3600 ng/mL
- concentration at 24 h ([3]; both sexes, Balb/c, mouse, plasma, 200 mg/kg oral single dose, 24 h): 2400 ng/mL and 5.74 µM
- Cmax ([3]; both sexes, Balb/c, mouse, plasma, po, 200 mg/kg, 200 mg/kg oral single dose, read-out: highest plasma concentration (Cmax)): 4200 ng/mL and 10 µM
- half-life ([3]; both sexes, Balb/c, mouse, plasma, two-compartment model, 200 mg/kg oral, read-out: estimated half-life (t1/2) (converted)): 22.4 h
- CLd/F intercompartmental clearance [3, 4]: 0.2514 L/h
- CLt/F total clearance [3, 4]: 0.0357 L/h
- Ka absorption constant [3, 4]: 0.6213 h⁻¹
- Vc/F central volume [3, 4]: 0.6930 L
- Vp/F peripheral volume [3, 4]: 0.4360 L
- morphological changes of trypomastigotes (T. cruzi trypomastigotes): much faster progressive morphological changes within the hour
